These results are taken from patent US20110034472A1, “Novel Compounds for Treatment of Cancer and Disorders Associated With Angiogenesis Function” (UNIVERSITY OF SOUTHERN CALIFORNIA, priority 2004, published 2011).

Entries after “also recorded” stand apart in the source; their conditions may differ. Counter-ions that a name gives are not always drawn. Some results are limits rather than exact numbers.

Series [1] deals with HCT 116 p53^−/− colon cancer cells. Nature of the series: MTT cytotoxicity assay, HCT 116 p53-/-. The series is classed as cell-based, human. The note with it: Homo sapiens, 72 h. The source says:
(§1) Human breast cancer cells MDA-MB-435 and colon cancer HT29, p53 mutant were purchased from the American Type Cell Culture (Manassas, Va.). The HCT116 P53^+/+ and HCT116 P53^−/− cells were kindly provided by Dr. Bert Vogelstein (Johns Hopkins Medical Institutions, Baltimore, Md.). Human prostate cancer cells, LNCaP, were kindly provided by Richard Cote (University of Southern California Keck School of Medicine). Cells were maintained as monolayer cultures in RPMI 1640 media supplemented with 10% fetal bovine serum (Gemini-Bioproducts, Woodland, Calif.) and 2 mmol/L L-glutamine at 37° C. in a humidified atmosphere of 5% CO2. To remove the adherent cells from the flask for passaging and counting, cells were washed with PBS without calcium or magnesium, incubated with a small volume of 0.25% trypsin-EDTA solution (Sigma-Aldrich, St. Louis, Mo.) for 5-10 min, and washed with culture medium and centrifuged. All experiments were performed using cells at exponential growth stage. Cells were routinely checked for mycoplasma contamination using a PCR-based assay (Stratagene, Cambridge, UK).
(§2) Cytotoxicity was assessed by a 3-(4,5-dimethylthiazol-2-yl)-2,5-diphenyltetrazolium bromide (MTT) assay as previously described.^9 Briefly, cells were seeded in 96-well microtiter plates and allowed to attach. Cells were subsequently treated with continuous exposure to the corresponding drug for 72 h. An MTT solution (at a final concentration of 0.5 mg/mL) was added to each well, and cells were incubated for 4 h at 37° C. After removal of the medium, DMSO was added and the absorbance was read at 570 nm. All assays were done in triplicate. The IC50 was then determined for each drug from a plot of log (drug concentration) versus percentage of cells killed.

Series [2] has as its system HCT 116 p53^+/+ colon cancer cells. Nature of the series: MTT cytotoxicity assay, HCT 116 p53+/+. The note with it: Homo sapiens, 72 h. The series is classed as cell-based, human.
From the text: as §1, §2

The test system of series [3] is MDA-MB-435 breast cancer cells. Kind of series: MTT cytotoxicity assay, MDA-MB-435. The series is classed as cell-based, human. The note with it: for IC50: Homo sapiens, MTT, 72 h, read-out: IC50. The procedure: The sensitivity of a panel of seven human cancer cell lines to SC144 was assessed by MTT-assay. […] The sensitivity towards SC144 was time- and dose-dependent.
(§3) Cytotoxicity was assessed by a 3-(4,5-dimethylthiazol-2-yl)-2,5-diphenyltetrazolium bromide assay as previously described (Carmichael et al. (1987) Cancer Res. 47:936-42). Briefly, cells were seeded in 96-well microtiter plates (PC3 and DU145 at 5,000 cells/well and LNCaP at 10,000 cells/well; breast and ovarian cells at 4,000 cells/well) and allowed to attach. Cells were subsequently treated with a continuous exposure to the corresponding drug for 72 hours. A 3-(4,5-dimethylthiazol-2-yl)-2,5-diphenyltetrazolium bromide solution (at a final concentration of 0.5 mg/mL) was added to each well and cells were incubated for 4 hours at 37° C. After removal of the medium, DMSO was added and the absorbance was read at 570 nm. All assays were done in triplicate. The IC50 was then determined for each drug from a plot of log(drug concentration) versus percentage of cell kill.
as §2

In series [4] the test system is human cancer cell lines (MDA-MB-435 and three colon cancer cells). Nature of the series: MTT assay, panel of breast, colon and prostate cell lines (Example V). The series is classed as cell-based. The conditions noted are these: for IC50: Homo sapiens, MDA-MB-435, representative breast, colon, and prostate cell lines, MTT assay, read-out: IC50 values range. The procedure:
All new compounds were tested in four human cancer cell lines, a breast cancer cell, MDA-MB-435, and three colon cancer cells.
as §2

A further series deals with HT29 colon cancer cells. Nature of the series: MTT cytotoxicity assay, HT 29. The series is classed as cell-based, human. The note with it: Homo sapiens, 72 h.
From the text: as §1, §2

The subject of series [5] is LNCaP prostate cancer cells. Kind of series: MTT cytotoxicity assay, LNCaP. The series is classed as cell-based. The note with it: Homo sapiens, hLNCaP, MTT, 72 h, read-out: IC50. As to the method: as §3, §2
In a further series the target is human CYP3A4 (Homo sapiens, UniProt P08684). Kind of series: Inhibition of human cDNA-expressed CYP3A4 (BFC metabolism). The series is classed as in vitro ADME. The note with it: BFC substrate, 37° C. As to the method:
The metabolism of fluorescent substrates by human cDNA-expressed CYP3A4 was assessed by incubation in 96 well plate at 37° C. Metabolism of 7-benzyloxy-4-trifluoromethylcoumarin (BFC) was assayed by measuring the production of the corresponding 7-hydroxy-4-trifluoro-methylcoumarin.
The investigation of cytochrome P450 enzyme inhibition by potential drug candidates can aid in predicting drug-drug interactions and/or unfavorable PK profiles produced upon dosing.

Another series has as its system CEM or HEY cells. Nature of the series: Cytotoxicity of salicylhydrazides (Table 5). The series is classed as cell-based. The conditions noted are these: Homo sapiens.
From the text: Human prostate cancer cells (PC3, p53 null, AR−; DU145, p53 mutant, AR−; and LNCaP, p53 wild-type, AR+) and breast cancer cells (MCF-7, overexpressed wild-type p53, ER+; MDA-MB-468, p53 mutant, […]; and MDA-MB-435, p53 mutant, ER−) were obtained from American Type Cell Culture (Manassas, Va.). The human ovarian carcinoma cell line (HEY) naturally resistant to cisplatin (CDDP) was kindly provided by Dr. Dubeau (University of Southern California Norris Cancer Center; Buick et al. (1985) Cancer Res. 45:3668-76 and Hamaguchi et al. (1993) Cancer Res. 53:5225-32). The results with CEM cells were previously described (Neamati et al. (1998) J. Med. Chem. 41:3202-9). Cells were maintained as monolayer cultures in RPMI 1640 supplemented with 10% fetal bovine serum (Gemini-Bioproducts, Woodland, Calif.) and 2 mmol/L L-glutamine at 37° C. in a humidified atmosphere of 5% CO2. To remove the adherent cells from the flask for passaging and counting, cells were washed with PBS without calcium or magnesium, incubated with a small volume of 0.25% trypsin-EDTA solution (Sigma-Aldrich, St. Louis, Mo.) for 5 to 10 minutes, and washed with culture medium and centrifuged. All experiments were done using cells in exponential cell growth.
as §3

For a further series, the system named is MDA-MB-435 cells. Nature of the series: MTT assay, continuous drug exposure for 48 hours (Table 3). It counts as cell-based, human.
The subject of another series is cancer cells. Nature of the series: Colony formation assay. The series is classed as cell-based. The conditions noted are these: doses ≧1 uM; hydrochloride. As to the method: FIG. 32. […] (A) The IC50 values of SC161′ range from 0.3 to 4 uM in representative breast, colon, and prostate cell lines using MTT assay.
Colony formation assays were also performed to confirm the activity of these compounds as described.^10 Briefly, cells were plated in 6-well plates at a density of 100 cells/well and allowed to attach. The next day, serial dilutions of the corresponding compounds were added and allowed to incubate for 24 h. After exposure, cells were washed in PBS and cultured in free media until colonies were formed (8-10 days). Cells were subsequently washed, fixed with a 1% glutaraldehyde solution for 30 min, and stained with a solution of crystal violet (2%) for 30 min. After staining, cells were thoroughly washed with water. Colonies were imaged on the Versa-Doc Imaging System (Bio-Rad) and counted using the Quantity One quantitation software package (Bio-Rad). The data reported represent means of at least three independent experiments.

Sequence of human CYP3A4 (P08684 whole entry): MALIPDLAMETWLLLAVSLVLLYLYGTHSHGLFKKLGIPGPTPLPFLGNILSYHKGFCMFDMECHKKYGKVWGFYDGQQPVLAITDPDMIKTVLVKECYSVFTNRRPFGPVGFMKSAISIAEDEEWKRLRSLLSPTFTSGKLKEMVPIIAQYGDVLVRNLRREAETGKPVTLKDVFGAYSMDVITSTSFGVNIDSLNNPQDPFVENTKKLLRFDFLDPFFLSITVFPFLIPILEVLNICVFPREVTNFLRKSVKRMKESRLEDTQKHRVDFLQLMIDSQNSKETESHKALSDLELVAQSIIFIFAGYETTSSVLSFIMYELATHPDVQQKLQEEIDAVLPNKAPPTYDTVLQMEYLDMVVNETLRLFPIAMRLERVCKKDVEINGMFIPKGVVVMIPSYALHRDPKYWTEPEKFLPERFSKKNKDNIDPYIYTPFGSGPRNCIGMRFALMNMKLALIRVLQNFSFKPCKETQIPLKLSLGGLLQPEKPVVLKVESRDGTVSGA

On to `O=C(NNc1nc2ccccc2n2cccc12)C1CSCN1` (centres unmarked) [SC153, Thiazolidine-4-carboxylic acid N′-pyrrolo[1,2-a]quinoxalin-4-yl-hydrazide], for which the melting point worked out at 162 °C. Besides, in series [1], half-maximal inhibition (IC50) was put at 10 ± 2 µM. For the same compound, in [2], the IC50 is 15 ± 3 µM. Further, in series [3], the “activity against the breast cancer line” value is “inactive” and the IC50 is more than 20 µM. In addition, the “activity against colon cancer lines” value in series [4] is recorded as “moderately active”. For the same compound, in the series with HT29 colon cancer cells, half-maximal inhibition (IC50) was put at 14 ± 1 µM.
On to `O=C(NNc1nc2cc(F)ccc2n2cccc12)c1cnc2ccccc2n1` [SC166′, N′-(7-Fluoropyrrolo[1,2-a]quinoxalin-4-yl)quinoxaline-2-carbohydrazide hydrochloride], for which, in series [4], the IC50 is 8 to 15 µM.
With `O=C(NNc1nc2cc(F)ccc2n2cccc12)c1ccccn1` [SC160′, N′-(7-Fluoropyrrolo[1,2-a]quinoxalin-4-yl)pyridine-2-carbohydrazide hydrochloride], the “activity in all cell lines” value in [4] was “inactive”.
For the compound `NC(CC(=O)NNc1nc2ccccc2n2cccc12)c1ccc(Cl)cc1` (centres unmarked) [SC161, 3-Amino-3-(4-chloro-phenyl)-propionic acid N′-pyrrolo[1,2-a]quinoxalin-4-yl-hydrazide], the IC50 was found to be 0.3 ± 0.07 µM in series [1]; 0.4 ± 0.01 µM in series [2]; 3 ± 2 µM in series [3]; 0.4 µM in [5]; 0.3 ± 0.06 µM with HT29 colon cancer cells.
With `C=C/C=C(\C(=C)O)C(=O)N1N=C(C)/C(=C\c2cccc(O)c2)C1=O` [SC24], the “inhibition of CYP3A4 activity” value on human CYP3A4 is “does not significantly inhibit CYP3A4 activity”. The compound also had an IC50 in the series with CEM or HEY cells of 0.13 µM. This compound also gave a CC50 in the series on MDA-MB-435 cells of 0.24 ± 0.03 µM. For the same compound, in the series with MDA-MB-435 cells (Homo sapiens, MDA-MB-435, read-out: CC80), the IC80 came out at 0.97 µM.
For the compound `NC(CC(=O)NNc1nc2ccccc2n2cccc12)c1ccccc1Cl` (centres unmarked) [SC160, 3-Amino-3-(2-chloro-phenyl)-propionic acid N′-pyrrolo[1,2-a]quinoxalin-4-yl-hydrazide], the IC50 in series [1] was more than 20 µM; in series [2] it was more than 20 µM; in series [3], more than 20 µM; in [5], more than 20 µM; with HT29 colon cancer cells, 17 µM.
On to `Cl.O=C(NNc1nc2cc(F)ccc2n2cccc12)c1cccnc1` [SC162′, N′-(7-Fluoropyrrolo[1,2-a]quinoxalin-4-yl)nicotinyl hydrazide hydrochloride], for which the “activity in all cell lines” value in [4] is “inactive”.
`O=C(NNc1nc2ccccc2n2cccc12)c1ccc2cc[nH]c2c1` [SC157, 1H-Indole-6-carboxylic acid N′-pyrrolo[1,2-a]quinoxalin-4-yl-hydrazide] registered a melting point of 198.5 °C. The IC50 in series [1] is more than 20 µM. Moreover, in series [2], the IC50 is more than 20 µM. Besides, in [3], the half-maximal inhibitory concentration (IC50) was more than 20 µM. Besides, the IC50 in the series with HT29 colon cancer cells was more than 20 µM.
Turning to `O=C(NNc1nc2cccc(F)c2n2cccc12)c1cnccn1` [SC161′, N′-(9-Fluoropyrrolo[1,2-a]quinoxalin-4-yl)pyrazine-2-carbohydrazide hydrochloride], in [4], the “activity in all cell lines” value is recorded as “highly active” and the IC50 is 0.3 to 4 µM. For the same compound, the colony formation entry in the series with cancer cells is “completely blocks colony formation; also recorded: completely abolished cell growth”.
